{"source": "patent US12565467B2", "about": "“Compounds, compositions, and methods for the treatment of inflammatory, degenerative, and neurodegenerative diseases” (Board of Supervisors of Louisiana State University and …, priority 2015, dated 2026)", "key": {"ARPE-19 cells": {"test_system": "ARPE-19 cells", "assay": "Oxidative stress induced apoptosis / cell death in ARPE-19 cells", "type": "cell-based, human", "conditions": "for concentration dependent cytoprotection (FIG. 5C): ARPE-19 under OS", "procedure": "(§1) FIG. 5. (A) Effect of PD146176 on VLC-PUFA-inhibited apoptosis induced by OS in ARPE-19 cells. […] It is evident that 32:6 and 34:6 LCAF were able to induce a substantial amount (55 and 48% respectively) of neuroprotection compared to PD 146176 (22%) when the stressed cells were treated with 5 μm of 15-LOX-D1 inhibitor. It can be concluded that since PD146176 is the inhibitor of 15-lipooxygenase enzyme, it might be protecting the stressed RPE cells by accumulating neuroprotective agents inside the cells. (B) Comparison of cytoprotective capacities of NPD1, C32:6 and C34:6 VLC-PUFA on oxidative stress-induced apoptosis in 15-LOX-1 cells. Shown here is the comparison of neuroprotection in a 15-LOX-1-deficient cell line under oxidative stress with 32:6 and 34:6 VLC-PUFA along with NPD1. 32:6 and 34:6 LCAF were able to induce neuroprotection (45% and 40% respectively), as compared to oxidative stress (90%) under this condition. (C) Concentration dependent cytoprotection by C32:6 and C34:6 VLC-PUFA in oxidative-stress induced ARPE-19 cells. A concentration (50-500 nM) kinetic of cytoprotection induced by LCAF 32:6 and 34:6 in RPE cell culture under OS was shown here. […] We decided to use 250 nM concentrations of 32:6 and 34:6 LCAF in subsequent experiments. (D) Selected images of alive and dead cells from this study (control, OS, treatment with C32:6).\n(§2) FIG. 5—(A) Effect of PD146176 on VLC-PUFA inhibited apoptosis induced by OS in ARPE-19 cells. […] It is evident that 32:6 and 34:6 LCAF were able to induce a substantial amount (55 and 48% respectively) of neuroprotection compared to PD 146176 (22%) when the stressed cells were treated with 5 μm of 15-LOX-D1 inhibitor. It can be concluded that since PD146176 is the inhibitor of 15-lipooxygenase enzyme, it might be protecting the stressed RPE cells by accumulating neuroprotective agents inside the cells. (B) Comparison of cytoprotective capacities of NPD1, C32:6 and C34:6 VLC-PUFA on oxidative stress-induced apoptosis in 15-LOX-1 cells. Shown here is the comparison of neuroprotection in a 15-LOX-1-deficient cell line under oxidative stress with 32:6 and 34:6 VLC-PUFA along with NPD1. 32:6 and 34:6 VLC-PUFA were able to induce neuroprotection (45% and 40% respectively), as compared to oxidative stress (90%) under this condition. (C) Concentration dependent cytoprotection by C32:6 and C34:6 VLC-PUFA in oxidative-stress induced ARPE-19 cells. A concentration (50-500 nM) kinetic of cytoprotection induced by VLC-PUFA 32:6 and 34:6 in RPE cell culture under OS was shown here. […] We decided to use 250 nM concentrations of 32:6 and 34:6 VLC-PUFA in subsequent experiments. (D) Selected images of alive and dead cells from this study (control, OS, treatment with C32:6)."}, "[1]": {"test_system": "human retinal pigment epithelial (RPE) cells deficient in 15-LOX-D1", "assay": "Oxidative stress (OS) induced apoptosis / cell death in 15-LOX-1-deficient human RPE cells", "type": "cell-based", "excerpt": "(§3) FIG. 4. (A) Cytoprotective effects of NPD1 like compounds on OS induced apoptosis. The results shown in this figure compare the cytoprotective capacities of long chain polyunsaturated fatty acids (VLC-PUFA), elovanoids ELV1 and ELV2, and neuroprotectin D1 (NPD1) in human retinal pigment epithelial (RPE) cells deficient in 15-LOX-D1 by measuring the protection of cell deaths induced by oxidative stress (OS) by these compounds. […] (B) Elovanoid precursors protect human retinal pigment epithelial cells deficient in 15-LOX-1, unlike DHA, from oxidative stress conditions.\nas §1\nas §3, with “Evidence of cytoprotection by 32.6 and 34.6 VLC-PUFA in oxidative-stress induced ARPE-19 cells as detailed in (FIG. 4): (A) Cytoprotective” for “FIG. 4. (A) Cytoprotective”, “capacities of very long chain” for “capacities of long chain”\nas §2, with “(D) Selected images of alive and dead cells from this study (control, OS, treatment with C32:6).” left out"}, "SIRT1": {"test_system": "SIRT1", "assay": "SIRT1 abundance in ARPE-19 cells under oxidative stress", "type": "cell-based", "conditions": "ARPE-19 / human RPE cells confronted with OS", "excerpt": "FIG. 10. (A) Effect of NPD1 and VLC-PUFA C32:6 and C34:6 in mediating upregulation of SIRT1 in ARPE-19 cells. (B) Quantification of SIRT1 upregulation by NPD1, C32:6 and C34:6. SIRT1 (Sirtuin1) belongs to a family of highly conserved proteins linked to caloric restriction beneficial outcomes and aging by regulating energy metabolism, genomic stability and stress resistance. SIRT1 is a potential therapeutic target in several diseases including cancer, diabetes, inflammatory disorders, and neurodegenerative diseases or disorders. Elovanoids induce cell survival involving the upregulation of the Bcl2 class of survival proteins and the downregulation of pro-apoptotic Bad and Bax under oxidative stress (OS) in RPE cells. […] As a consequence, remarkable cell survival takes place. This target of elovanoids might be relevant to counteract consequences of several diseases associated with SIRT1.\nFIG. 10—(A) Effect of NPD1 and VLC-PUFA C32:6 and C34:6 in mediating upregulation of SIRT1 in ARPE-19 cells. (B) Quantification of SIRT1 upregulation by NPD1, C32:6 and C34:6. SIRT1 (Sirtuin1) belongs to a family of highly conserved proteins linked to caloric restriction beneficial outcomes and aging by regulating energy metabolism, genomic stability and stress resistance. […]"}, "Bcl-xL": {"test_system": "Bcl-xL", "assay": "Bcl-xL protein in ARPE-19 cells under oxidative stress", "type": "cell-based, human", "conditions": "ARPE-19 cells under OS", "procedure": "(§4) FIG. 8. (A) Bcl-xL-upregulation by elovanoids ELV1 and ELV2 in ARPE-19 cells under stress. Bcl-xL is the antiapoptotic Bcl2 family protein. Like proapoptotic proteins Bid and Bim, the effect of elovaniod precursors on the antiapoptotic protein Bcl-xL was tested in this figure in RPE cells under OS. […] (B) Effect of NPD1, ELV1 and ELV2 on Bax expression in LOX-D cells under stress. Proapoptotic Bax was tested in this figure. […] C) VLC-PUFA and elovanoids ELV1 and ELV2 mediated effect on Bax upregulation in ARPE-19 cells under stress. In this experiment, elovanoid precursors along with VLC-PUFA were tested on the downregulation of the Bax protein in RPE cells under stress.\nas §4, with “8—(A)” for “8. (A)”"}, "Bcl2": {"test_system": "Bcl2", "assay": "Bcl2 protein in RPE (LOX-D / ARPE-19) cells under oxidative stress", "type": "cell-based, human", "excerpt": "FIG. 9. (A) VLC-PUFA and elovanoids ELV1 and ELV2 mediated effect on Bcl2 upregulation in ARPE-19 cells under stress. In this experiment we tested the effect of elovanoid precursors on Bcl2 upregulation along with VLC-PUFA in stressed RPE. (B) Quantification of Bcl2 upregulation by NPD1, ELV1 and ELV2 in LOX-D cells. Bcl2 is an important antiapoptotic protein of the Bcl2 family protein.\nFIG. 9—(A) VLC-PUFA and elovanoids ELV1 and ELV2 mediated effect on Bcl2 upregulation in ARPE-19 cells under stress. In this experiment we tested the effect of elovaniod precursors on Blc2 upregulation along with VLC-PUFA in stressed RPE. (B) Quantification of Bcl2 upregulation by NPD1, ELV1 and ELV2 in LOX-D cells. Bcl2 is an important antiapoptotic protein of the Bcl2 family protein."}, "Bid": {"test_system": "Bid", "assay": "Bid protein by western blot in ARPE-19 cells under oxidative stress", "type": "cell-based, human", "excerpt": "FIG. 6. (A) VLC-PUFA and elovanoids ELV1 and ELV2 mediated effect on Bid upregulation in ARPE-19 cells under stress. […] (B) VLC-PUFA and ELV1 and ELV2 compounds mediated upregulation of Bid in ARPE-19 cells under stress.\nFIG. 6—(A) VLC-PUFA and elovanoids ELV1 and ELV2 mediated effect on Bid upregulation in ARPE-19 cells under stress. […] (B) VLC-PUFA and ELV1 and ELV2 compounds mediated upregulation of Bid in ARPE-19 cells under stress."}, "Bim": {"test_system": "Bim", "assay": "Bim protein in ARPE-19 cells under oxidative stress", "type": "cell-based, human", "conditions": "ARPE-19 cells under stress", "excerpt": "FIG. 7. (A) VLC-PUFA and ELV1 and ELV2 compounds mediated downregulation of Bim in ARPE-19 cells under stress. Bim, another class of Bcl2 family, has been tested like Bid in this figure to confirm our previous results. VLC-PUFA and elovanoids protected against the upregulation of Bim by OS, similar to Bid, in RPE cells under stress. (B) VLC-PUFA and elovanoids mediated effect on Bim downregulation in ARPE-19 cells under stress.\nFIG. 7—A) VLC-PUFA and ELV1 and ELV2 compounds mediated […] of Bim in ARPE-19 cells under stress. Bim, another class of Bcl2 family, has been tested like Bid in this figure to confirm our previous results. VLC-PUFA and elovanoids protected the upregulation of Bim by OS, similar to Bid, in RPE cells under stress. (B) VLC-PUFA and elovanoids mediated effect on Bim upregulation in ARPE-19 cells under stress."}, "Bax": {"test_system": "Bax", "assay": "Bax expression in LOX-D RPE cells under oxidative stress", "type": "cell-based, human", "procedure": "as §4\nas §4, with “8—(A)” for “8. (A)”"}}}
{"smiles": "CC/C=C\\C/C=C\\C/C=C\\C/C=C\\C/C=C\\C/C=C\\CCCCCCCCCCCCC(=O)O", "note": "[C32:6]", "values": [{"measurement": "concentration dependent cytoprotection (FIG. 5C)", "setting": "ARPE-19 cells; 250 nM", "result": "very good intermediate effect"}, {"measurement": "concentration dependent cytoprotection (FIG. 5C)", "setting": "ARPE-19 cells; 500 nM", "result": "maximum effect"}, {"measurement": "protection against OS in RPE cells (summary, FIGS. 4-10)", "setting": "ARPE-19 cells; RPE cells", "result": "protective against OS"}, {"measurement": "concentration dependent cytoprotection (FIG. 5C)", "setting": "ARPE-19 cells; starting from 50 nM", "result": "gradual decrease of cell deaths"}, {"measurement": "neuroprotection (FIG. 5A)", "setting": "ARPE-19 cells; stressed ARPE-19 cells treated with 5 μm of 15-LOX-D1 inhibitor PD146176", "result": 55, "unit": "%"}, {"measurement": "neuroprotection (FIG. 5B)", "setting": "[1]; 15-LOX-1-deficient cell line under oxidative stress, compared to oxidative stress (90%)", "result": 45, "unit": "%"}, {"measurement": "protection against cell death under oxidative stress conditions (FIG. 4B)", "setting": "[1]; 15-LOX-D1 cells under oxidative stress", "result": "protect against cell death"}, {"measurement": "effect on SIRT1 abundance (FIG. 10)", "setting": "SIRT1", "result": "mediate the upregulation of SIRT1"}]}
{"smiles": "CC/C=C\\C[C@H](O)\\C=C/C=C/C=C/[C@H](O)C/C=C\\C/C=C\\CCCCCCCCCCCCC(=O)O", "note": "[ELV1, (14Z,17Z,20R,21E,23E,25Z,27S,29Z)-20,27-dihydroxydotriaconta-14,17,21,23,25,29-hexaenoic acid]", "values": [{"measurement": "effect on antiapoptotic Bcl-xL protein (FIG. 8A)", "setting": "Bcl-xL", "result": "potent upregulation"}, {"measurement": "effect on Bcl2 protein (FIG. 9)", "setting": "Bcl2", "result": "potent upregulation"}, {"measurement": "effect on Bid protein upregulated by OS (FIG. 6)", "setting": "Bid", "result": "potent downregulation"}, {"measurement": "effect on Bim upregulation by OS (FIG. 7)", "setting": "Bim", "result": "potent downregulation"}, {"measurement": "activity against OS relative to the related VLC-PUFA (FIG. 4)", "setting": "[1]; as sodium salts or methyl esters", "result": "more potent activity against OS than the related VLC-PUFA"}, {"measurement": "effect on Bax upregulation by OS (FIG. 8B)", "setting": "Bax", "result": "potent downregulation"}]}
